The compounds below were run against T1, human P-selectin (Homo sapiens, UniProt P16109) (assay: inhibition assay of SO3-sLea-PAA-biotin binding to immobilized P-selectin). Conditions: inhibition of HSO3-Lea-PAA-biotin (0.33 μg/ml) binding to immobilized human P-selectin/IgG-Fc, 2 hours at 37° C.
T1 sequence (P16109 42-771): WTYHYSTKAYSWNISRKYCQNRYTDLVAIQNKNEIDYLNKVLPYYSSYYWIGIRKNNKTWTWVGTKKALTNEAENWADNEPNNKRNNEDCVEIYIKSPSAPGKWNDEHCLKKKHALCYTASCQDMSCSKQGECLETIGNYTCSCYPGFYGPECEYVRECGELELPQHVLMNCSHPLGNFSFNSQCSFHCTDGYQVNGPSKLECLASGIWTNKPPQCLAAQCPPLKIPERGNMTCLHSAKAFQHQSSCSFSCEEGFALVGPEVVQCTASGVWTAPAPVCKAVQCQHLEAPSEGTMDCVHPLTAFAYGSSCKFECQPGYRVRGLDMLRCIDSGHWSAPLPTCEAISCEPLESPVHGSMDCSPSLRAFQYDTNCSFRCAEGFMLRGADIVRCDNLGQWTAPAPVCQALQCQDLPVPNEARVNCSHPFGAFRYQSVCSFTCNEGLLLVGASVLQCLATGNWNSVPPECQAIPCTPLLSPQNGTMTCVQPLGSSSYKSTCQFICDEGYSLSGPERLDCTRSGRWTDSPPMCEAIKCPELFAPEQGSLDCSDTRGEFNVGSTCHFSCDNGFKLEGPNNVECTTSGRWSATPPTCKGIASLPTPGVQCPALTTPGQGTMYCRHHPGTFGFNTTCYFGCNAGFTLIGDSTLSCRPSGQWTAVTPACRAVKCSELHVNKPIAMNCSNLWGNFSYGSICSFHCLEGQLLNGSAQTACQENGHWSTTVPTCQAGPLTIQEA
Description: The activity of compound 3 was evaluated in an inhibition assay of SO3-sLe^a-PAA-biotin binding to immobilized P-selectin as described in the literature (G. Weitz-Schmedt et al., Anal. Biochem. 238, 184-190, 1996) and compared to that of its mannosyl analogue (reference compound 2). A 96 microtiter plate (High binding flat bottom, Costar, Corning, U.S.A.) was coated overnight at 4° C. with 10 μg/ml goat anti-human IgG in coating buffer (50 mM NaHCO3, pH 9.6). Subsequently, wells were washed with assay buffer (20 mM HEPES, 150 mM NaCl, 1 mM CaCl2, pH 7.4) and incubated for 1 hour at 37° C. with blocking buffer (3% BSA in assay buffer). After washing with assay buffer, the wells were incubated for 2 hours at 37° C. with human P-selectin/IgG-Fc (0.3 μg/ml) or CD4/IgG-Fc (as negative control). Subsequently, wells were washed three times with assay buffer and incubated for 2 hours at 37° C. in binding buffer (0.1% BSA, 0.05% Tween 20 in assay buffer) with 0.33 μg/ml HSO3-Le^a-PAA-biotin and the compound. The wells were washed six times with binding buffer and 3,3′,5,5′-tetramethylbenzine (TMB)/H2O2 was added and incubated at room temperature for 15 minutes. The reaction was halted by addition of 2M H2SO4 and the absorbance was measured at 450 nm.
The binding of compounds 6d, 6f, and 6i to P-selectin was evaluated using the same inhibition assay as described in example 2.

| SMILES | EC50 |
| --- | --- |
| O=C(COP(=O)(O)O)C(O)C(O)COC1OC(CO)C(O)C(O)C1O (centres unmarked) [Compound 3] | 2 mM |
| O=C(COP(=O)(O)O)C(O)C(O)COC1OC(CO)C(O)C(O)C1O (centres unmarked) [Reference compound 2, reference compound] | 8.2 mM |

Second part, the compound after the results:

| EC50 | SMILES |
| --- | --- |
| 4.5 mM | CCCCCCCC(=O)NC1C(OCC(O)C(O)C(=O)COP(=O)(O)O)OC(CO)C(O)C1O (centres unmarked) [Compound 6c] |
| 3.7 mM | O=C(NC1C(OCC(O)C(O)C(=O)COP(=O)(O)O)OC(CO)C(O)C1O)OCC(Cl)(Cl)Cl (centres unmarked) [Compound 6d] |
| 0.9 mM | O=C(NC1C(OCC(O)C(O)C(=O)COP(=O)(O)O)OC(CO)C(O)C1O)c1ccccc1 (centres unmarked) [Compound 6f] |

— patent US7304039B2, “Glucose-based compounds with affinity to P-selectin” (Astellas Pharma Europe B.V., priority 2002, dated 2007)
